Measured values from patent US20100331368A1, “2,5-DIARYL SELENOPHENE COMPOUNDS, AZA 2,5-DIARYL THIOPHENE COMPOUNDS, AND THEIR PRODRUGS AS ANTIPROTOZOAL AGENTS” (priority 2007, published 2010).
pIC50: −log10 of the molar value. Structures can show the parent of a compound that is named as a salt. Where two headings read alike, the source gives them in different places.

What was measured:
[1] = system: STIB 900 strain of Trypanosoma brucei rhodesiense; assay: In vivo activity against T. b. r. STIB 900 in a mouse model; conditions: for responders at 20 mg/kg / responders at 25 mg/kg / responders at 5 mg/kg: Trypanosoma brucei, 1440 h, read-out: Cures (number of mice that survive and are parasite free for 60 days); for Survival (average days of survival) / Cures (number of mice that survive and are parasite free for 60 days): mouse, days 3-6 post-infection; for Survival (average days of survival): untreated controls expire between 7 and 8 days; for Cures (number of mice that survive and are parasite free for 60 days): groups of four mice
Description: The activities of compounds 4, 5, 6, 11, 12, 18, 20, 22, 27, 28, 30 and 33 against the STIB 900 strain of Trypanosoma brucei rhodesiense (T. b. r.) in a mouse model are shown in Table 2. […] Groups of four mice were infected intraperitoneally with 2×10^5 bloodstream forms of T. b. r. STIB 900 which originates from a patient in Tanzania. On days 3, 4, 5, and 6 post-infection the experimental groups were treated with the drugs either by the intraperitoneal or for prodrugs by the oral route. Usually the highest tolerated dose was used which was determined in a pretoxicological experiment. Parasitemia of the mice was checked daily up to day 14 post-infection and thereafter 2 times per week up to day 60. One group of mice was not treated and acted as control. For relapsing mice, the day of death was recorded and the survival time determined.

L-6 rat mycoblast cells [2] = assay: Cell toxicity assay in L-6 cells
[3] = system: Trypanosoma brucei rhodesiense (T. b. r.); assay: In vitro antiprotozoal activity against Trypanosoma brucei rhodesiense; assay type: cell-based
Description: (§1) In vitro antiprotozoal activities were measured following established protocols. […] E., et al., Bioorg.

[4] = system: Plasmodium falciparum (P. f.); assay: In vitro antiprotozoal activity against Plasmodium falciparum; assay type: cell-based
Description: as §1

[5] = system: Leishmania donovani (L. d.); assay: In vitro assay against Leishmania donovani; assay type: cell-based
Description: as §1

L-6 rat mycoblast cells [6] = system: L-6 rat mycoblast cells
[7] = Trypanosoma brucei, RHODESIENSE, in vitro, read-out: IC50 values versus T.b.r.
[8] = Trypanosoma brucei, RHODESIENSE, in vitro, read-out: T.b.r. IC50
[9] = Plasmodium falciparum, in vitro, read-out: IC50 values versus P.f.
[10] = Plasmodium falciparum, in vitro, read-out: P.f. IC50
[11] = Leishmania donovani, in vitro, read-out: IC50 values versus L.d.
[12] = Leishmania donovani, in vitro, read-out: L.d. C50
[13] = in vitro, read-out: T.b.r. IC50

Compound: Cl.Cl.N=C(N)c1ccc(-c2ccc(-c3ccc(C(=N)N)cc3)[se]2)cc1 [Compound 4, 2,5-Bis(4-amidinophenyl)selenophene Dihydrochloride]
- responders at 20 mg/kg ([1]; ip): 50%
- Survival (average days of survival) ([1]; ip, 20 mg/kg): 55.5 days
- Cytotoxocity (L-6 rat mycoblast cells [2]): 9.7 µM
- pIC50 ([3]; Trypanosoma brucei, RHODESIENSE, read-out: IC50 values versus T.b.r.): ≥ 7.59
- pIC50 ([3]; Trypanosoma brucei, RHODESIENSE, read-out: T.b.r. IC50): 8.70
- pIC50 ([4]; Plasmodium falciparum, read-out: IC50 values versus P.f.): ≥ 7.85
- pIC50 ([4]; Plasmodium falciparum, read-out: P.f. IC50): 8.70
- pIC50 ([5]; Leishmania donovani, read-out: IC50 values versus L.d.): > 6.70
- pIC50 ([5]; Leishmania donovani, read-out: L.d. C50): 6.77

Compound: Cl.Cl.N=C(NO)c1ccc(-c2ccc(-c3ccc(C(=N)NO)cc3)[se]2)cc1 [Compound 5, 2,5-Bis[4-(N-hydroxyamidino)phenyl]selenophene Dihydrochloride]
- responders at 25 mg/kg ([1]; po): 0%
- Survival (average days of survival) ([1]; po, 25 mg/kg): 11.5 days

Compound: CONC(=N)c1ccc(-c2ccc(-c3ccc(C(=N)NOC)cc3)[se]2)cc1.Cl.Cl [Compound 6, 2,5-Bis[4-(N-methoxyamidino)phenyl]selenophene Dihydrochloride]
- responders at 25 mg/kg ([1]; po): 0%
- Survival (average days of survival) ([1]; po, 25 mg/kg): 15.25 days

Compound: N=C(N)c1ccc(-c2ccc(-c3ccc(C(=N)N)cn3)[se]2)cc1 [Compound 11, 6-[5-(4-Amidinophenyl)-selenophen-2-yl]-nicotinamidine]
- responders at 5 mg/kg ([1]; ip): 100%
- Survival (average days of survival) ([1]; ip, 5 mg/kg): 60 days
- Cytotoxocity (L-6 rat mycoblast cells [2]): 27.7 µM
- pIC50 [3, 7]: ≥ 7.59
- pIC50 [3, 8]: 8.05
- pIC50 [4, 9]: ≥ 7.85
- pIC50 [4, 10]: 8.00
- pIC50 [5, 11]: 5.80
- pIC50 [5, 12]: 5.80

Compound: N/C(=N\O)c1ccc(-c2ccc(-c3ccc(/C(N)=N/O)cn3)[se]2)cc1 [Compound 12]
- responders at 25 mg/kg ([1]; po): 0%
- Survival (average days of survival) ([1]; po, 25 mg/kg): 26 days

Compound: N=C(N)c1ccc(-c2ccc(-c3ccc(C(=N)N)nc3)[se]2)cc1 [Compound 18, 5-[5-(4-Amidinophenyl)-selenophen-2-yl]-pyridine-2-amidine]
- responders at 5 mg/kg ([1]; ip): 100%
- Survival (average days of survival) ([1]; ip, 5 mg/kg): 60 days
- Cytotoxocity (L-6 rat mycoblast cells [2]): 13.4 µM
- pIC50 [3, 7]: ≥ 7.59
- pIC50 [3, 8]: 7.59
- pIC50 [4, 9]: ≥ 7.85
- pIC50 [4, 10]: 7.85
- pIC50 [5, 11]: > 6.70
- pIC50 [5, 12]: 6.89

Compound: CO/N=C(\N)c1ccc(-c2ccc(-c3ccc(/C(N)=N/OC)nc3)[se]2)cc1 [Compound 20, 5-{5-[4-(N-Methoxyamidino)-phenyl]-selenophen-2-yl}-pyridine-2-N-methoxyamidine]
- responders at 25 mg/kg ([1]; po): 25%
- Survival (average days of survival) ([1]; po, 25 mg/kg): 36.5 days

Compound: N=C(N)c1ccc(-c2ccc(-c3ccc(C(=N)N)nc3)[se]2)cn1 [Compound 22, 2,5-Bis-[5-(2-amidino-pyridyl)]selenophene dihydrochloride]
- responders at 5 mg/kg ([1]; ip): 100%
- Survival (average days of survival) ([1]; ip, 5 mg/kg): 60 days
- Cytotoxocity (L-6 rat mycoblast cells [2]): 5.6 µM
- pIC50 [3, 7]: ≥ 7.59
- pIC50 [3, 8]: 8.70
- pIC50 [4, 9]: ≥ 7.85
- pIC50 [4, 10]: 8.40
- pIC50 [5, 11]: > 6.70
- pIC50 [5, 12]: 7.28

Compound: N=C(N)c1ccc(-c2ccc(-c3ccc(C(=N)N)cn3)[se]2)nc1 [Compound 27, 2,5-Bis-[2-(5-amidino-pyridyl)]selenophene dihydrochloride]
- responders at 5 mg/kg ([1]; ip): 100%
- Survival (average days of survival) ([1]; ip, 5 mg/kg): 60 days
- Cytotoxocity (L-6 rat mycoblast cells [2]): 158.3 µM
- pIC50 [3, 8]: 7.30
- pIC50 [4, 9]: ≥ 7.85
- pIC50 [4, 10]: 8.00
- pIC50 [5, 12]: 5.25

Compound: NC(=NO)c1ccc(-c2ccc(-c3ccc(C(N)=NO)cn3)[se]2)nc1 [Compound 28, 2,5-Bis-[2-{5-(N-hydroxyamidino)-pyridyl}]selenophene dihydrochloride]
- responders at 25 mg/kg ([1]; po): 0%
- Survival (average days of survival) ([1]; po, 25 mg/kg): 20 days

Compound: Cl.Cl.N=C(N)c1ccc(-c2ccc(-c3ccc(C(=N)N)cn3)s2)nc1 [Compound 30, 2,5-Bis-[2-(5-amidino-pyridyl)]thiophene dihydrochloride]
- Cures (number of mice that survive and are parasite free for 60 days) ([1]; ip, 5 mg/kg): 1/4
- Survival (average days of survival) ([1]; ip, 5 mg/kg): 50.25 days
- pIC50 [3, 13]: 7.17
- Cytotoxocity (L-6 rat mycoblast cells [6]): >222 µM
- pIC50 ([4]; in vitro, read-out: P.f. IC50): 7.74
- pIC50 ([5]; in vitro, read-out: L.d. C50): 4.63

Compound: Cl.Cl.N=C(N)c1ccc(-c2ccc(-c3ccc(C(=N)N)nc3)s2)cn1 [Compound 33, 2,5-Bis-[5-(2-amidino-pyridyl)]thiophene dihydrochloride]
- Cures (number of mice that survive and are parasite free for 60 days) ([1]; ip, 5 mg/kg): 1/4
- Survival (average days of survival) ([1]; ip, 5 mg/kg): 42.5 days
- pIC50 [3, 13]: 8.40
- Cytotoxocity (L-6 rat mycoblast cells [6]): 4.8 µM
- pIC50 ([4]; in vitro, read-out: P.f. IC50): 8.52
- pIC50 ([5]; in vitro, read-out: L.d. C50): 6.90

Compound: N=C(N)c1ccc(-c2ccc(-c3ccc(C(=N)N)cc3)o2)cc1 [Furamidine, reference compound]
- Cures (number of mice that survive and are parasite free for 60 days) ([1]; ip, 10 mg/kg): 0/4
- Survival (average days of survival) ([1]; ip, 10 mg/kg): 44.5 days
- Cytotoxocity (L-6 rat mycoblast cells [2]): 6.4 µM
- pIC50 [3, 13]: 8.37
- pIC50 ([5]; in vitro, read-out: L.d. C50): 5.57

Compound: N=C(N)c1ccc(OCCCCCOc2ccc(C(=N)N)cc2)cc1 [Pentamidine, reference compound]
- responders at 20 mg/kg ([1]; ip): 0%
- Survival (average days of survival) ([1]; ip, 20 mg/kg): 42.75 days
- pIC50 [5, 12]: 5.70
